{"source": "patent US20080140138A1", "about": "“Inhibition of inflammatory cytokine production by stimulation of brain muscarinic receptors” (priority 2002, published 2008)", "key": {"LPS-induced serum TNF": {"tested_on": "LPS-induced serum TNF", "test": "LPS-induced serum TNF after i.c.v. drug injection, L929 bioactivity assay", "assay_type": "in vivo, Lewis rats", "conditions": "i.c.v.; for effect in reducing LPS-induced serum TNF levels: nicotine 10 μg/rat, prozak 0.01 mg/10 g, LPS 15 mg/kg i.v. 1 h later", "quoted_text": "Method of stereotactic intracerebroventricular injections. […] Lewis rats were anaesthetized with urethane (1 g/kg, i.p.) and xylazine (15 mg/rat, i.m. (intramuscular)). Rats were then placed in a stereotactic head frame (Stoelting, Wood Dale, Ill., USA). The incisor bar was adjusted until the plane defined by the lambda and bregma was parallel to the base plate. For i.c.v. injections the needle of a Hamilton syringe (25 μl) was positioned stereotactically above the lateral ventricle (0.2 mm and 1.5 mm posterior to bregma, 3.2 mm below the dura.) Solutions of the drugs tested were prepared in sterile endotoxin-free water, at the specified concentrations, and a 10-μl injection/rat was administered over 2 min, 1 h prior to either carrageenan injection, or to LPS.\nIn one set of experiments, rats were injected by i.c.v. means with either saline (n=1), CNI-1493 (5 μg/rat, n=3), CNI-1493 plus atropine (5 μg/rat each), or atropine (5 μg/rat). LPS (15 mg/kg, i.v.) was given 1 h later. Blood was collected 2 h post LPS administration. Serum TNF was determined by the L929 assay."}, "[1]": {"tested_on": "carrageenan-induced hindpaw edema", "test": "Carrageenan-induced hindpaw edema", "assay_type": "in vivo, Lewis rats", "experimental": "Method of determining CNI-1493 receptor binding. CNI-1493 was tested at a single concentration (10 μM) in a panel of receptor binding assays by NovaScreen Biosciences Corporation (Hanover, Md.). Values were expressed as the percent inhibition of specific binding, and represented the average of duplicate tubes. Method of stereotactic intracerebroventricular injections. A rat model of intracerebroventricular (i.c.v.) injections was established in order to be able to directly deliver pharmacological agents into the brain of rats. This was necessary in order to separate drug effects on peripheral inflammation that occurred through central versus peripheral mechanisms. Lewis rats were anaesthetized with urethane (1 g/kg, i.p.) and xylazine (15 mg/rat, i.m. (intramuscular)). Rats were then placed in a stereotactic head frame (Stoelting, Wood Dale, Ill., USA). The incisor bar was adjusted until the plane defined by the lambda and bregma was parallel to the base plate. For i.c.v. injections the needle of a Hamilton syringe (25 μl) was positioned stereotactically above the lateral ventricle (0.2 mm and 1.5 mm posterior to bregma, 3.2 mm below the dura.) Solutions of the drugs tested were prepared in sterile endotoxin-free water, at the specified concentrations, and a 10-μl injection/rat was administered over 2 min, 1 h prior to either carrageenan injection, or to LPS.\nThe tested drugs, in either the carrageenan and/or LPS experiments, were: saline control; fluoxetine hydrochloride, (also known as Prozak) (0.01 mg/100 g); muscarine (50 μg/rat, 5 μg/rat, 0.5 μg/rat, 0.05 μg/rat, 0.005 μg/rat); 4-(N-[3-chlorophenyl]carbamoyloxy)-2-butynyltrimethylammonium chloride (also known as McN-A-343) (5 μg/rat); Muscarinic Toxin-3, (also known as MT-3) from Dendroaspis angusticeps snake venom (0.37 μg/rat); nicotine (10 μg/rat); CNI-1493 (1 μg/kg, 50 μg/rat); atropine (1 μg/kg, 5 μg/rat); CNI-1493 plus atropine (1 μg/kg of each of the drugs; 50 μg/rat, 5 μg/rat respectively); naloxone hydrochloride (2 μg/rat), CNI-1493 plus naloxone (50 μg/rat+5 μg/rat respectively); and morphine (20 μg/rat).\nMethod of carrageenan-induced hindpaw edema. Paw edema was induced in anaesthetized rats by injection of 1% solution of 1-carrageenan (100 μl) into the plantar surface of the left hindpaw. The right hindpaw was injected with the same volume of saline alone (as control). The thickness of the carrageenan-treated and saline-treated hindpaw was measured using a caliper at 3 h post carrageenan, and the difference between paw thickness calculated as an index of inflammation (paw swelling). Method of LPS injections and TNF determination. LPS (15 mg/kg, i.v.) was injected in the tail vein 1 h after drug injection. Blood was obtained 2 h post LPS injection by paraorbital bleeding. Serum TNF concentrations were determined by an L929 bioactivity assay. Method of assessing TNF by the L929 bioactivity assay. L929 cells were suspended in Dulbecco's minimal Eagle's medium (DMEM; GibcoBRL) supplemented with fetal bovine serum (10%; Hyclone) and penicillin/streptomycin (0.5%; Sigma Chemical Co.), and plated at 2×10^4 cells per well in 96-well flat-bottomed microtiter plates. After 24 h, media were respirated and replaced with medium containing cycloheximide (10 μg/ml; Sigma Chemical Co.) and the samples to be assayed/TNF standards. Plates were incubated overnight, at which time cell viability as a function of TNF concentration was assessed by the MTT assay. Absorbance values were converted to units per milliliter by comparison with a standard curve for rat TNF.\nIn a third set of experiments, rats were injected by i.c.v. means with either saline (n=4), CNI-1493 (5 μg/rat, n=3), CNI-1493 plus atropine (5 μg/rat each), or atropine (5 μg/rat). Carrageenan was given to the animals 1 h later, and paw edema was determined 3 h post carrageenan. […]"}, "LPS-induced TNF": {"tested_on": "LPS-induced TNF", "test": "LPS-induced TNF in serum and tissues after muscarine, ELISA", "assay_type": "in vivo, rats", "conditions": "for LPS-induced heart TNF levels: heart tissue", "experimental": "Methods of stereotactic intracerebroventricular injection of muscarine into rats and LPS injections were as described in Example 1. TNF levels in serum and tissues were determined using an enzyme-inked immunosorbent assay (ELISA) according to the manufacturere's instructions (R & D Systems (Minneapolis, Minn.)).\nRats were injected by i.c.v. means with either saline (control) or muscarine (0.005 μg/kg body weight, 0.5 μg/kg body weight, 5.0 μg/kg body weight, or 50 μg/kg body weight). LPS was administered 1 hour later. Two hours after LPS administration the rats were sacrificed and blood, heart tissue, and spleen tissue were isolated from the rats. As shown in FIGS. 9A-9C, i.c.v. administration of muscarine inhibited LPS-induced serum, heart, and spleen (peripheral) TNF levels.\nMethods of LPS injections were as described in Example 1. Determination of serum and tissue TNF levels were as described in Example 4. Muscarine (or control saline) was intravenously injected into rats at concentrations of 0.05 μg/kg body weight, 0.5 μg/kg body weight, or 5.0 μg/kg body weight.\nRats were injected by i.v. means with either saline (control) or muscarine (0.05 μg/kg body weight, 0.5 μg/kg body weight, or 5.0 μg/kg body weight). LPS was administered 1 hour later. Two hours after LPS administration the rats were sacrificed and blood, liver tissue, heart tissue, and spleen tissue were isolated from the rats and assayed for TNF concentrations. As shown in FIGS. 10A-10D, intravenous administration of muscarine had no effect on LPS-induced serum, liver, heart, and spleen TNF levels."}, "[2]": {"tested_on": "carrageenan-induced paw edema", "conditions": "low doses, direct administration to the brain; cited from earlier work"}, "[3]": {"conditions": "muscarine i.c.v. 0.005-50 μg/kg body weight"}, "[4]": {"conditions": "muscarine i.v. 0.05, 0.5, 5.0 μg/kg body weight"}}, "note": "Counter-ions that a name gives are not always drawn."}
{"smiles": "CN1[C@@H]2CC[C@H]1C[C@@H](OC(=O)C(CO)c1ccccc1)C2", "note": "(stereo partly shown) [atropine]", "values": [{"measurement": "effect of atropine on CNI-1493 inhibition of LPS-induced serum TNF", "setting": "LPS-induced serum TNF; CNI-1493 plus atropine, 5 μg/rat each", "value": "reversed the inhibitory effect of CNI-1493 to the TNF level of atropine alone"}, {"measurement": "effect of atropine on CNI-1493 inhibition of paw edema", "setting": "[1]; CNI-1493 plus atropine, 5 μg/rat each, i.c.v.", "value": "reverses the effect"}]}
{"smiles": "C[C@@H]1O[C@H](C[N+](C)(C)C)C[C@H]1O", "note": "[muscarine]", "values": [{"measurement": "effect of vagotomy on muscarine inhibition of paw edema", "setting": "[1]; muscarine 0.5 μg/rat i.c.v., bilateral cervical vagotomy, P=0.015 SAL v. MUS, P=0.039 MUS v. MUS-VGX", "value": "Vagotomy clearly abrogates the inhibitory effects"}, {"measurement": "inhibition of carrageenan-induced paw edema", "setting": "[1]; muscarine i.c.v. 5, 0.5, 0.05, 0.005 μg/rat", "value": "significantly inhibits carrageenan-induced paw edema in a dose-dependent manner"}, {"measurement": "LPS-induced heart TNF levels", "setting": "LPS-induced TNF; [3]", "value": "inhibited"}, {"measurement": "LPS-induced serum TNF levels", "setting": "LPS-induced TNF; [3]", "value": "inhibited"}, {"measurement": "LPS-induced spleen TNF levels", "setting": "LPS-induced TNF; [3]", "value": "inhibited"}, {"measurement": "LPS-induced heart TNF levels", "setting": "LPS-induced TNF; [4]", "value": "no effect"}, {"measurement": "LPS-induced liver TNF levels", "setting": "LPS-induced TNF; muscarine i.v. 0.05, 0.5, 5.0 μg/kg body weight, liver", "value": "no effect"}, {"measurement": "LPS-induced serum TNF levels", "setting": "LPS-induced TNF; [4]", "value": "no effect"}, {"measurement": "LPS-induced spleen TNF levels", "setting": "LPS-induced TNF; [4]", "value": "no effect"}]}
{"smiles": "C[N+](C)(C)CC#CCOC(=O)Nc1cccc(Cl)c1.[Cl-]", "note": "[McN-A-343, 4-(N-[3-chlorophenyl]carbamoyloxy)-2-butynyltrimethylammonium chloride]", "values": [{"measurement": "inhibition of paw edema, i.c.v. compared with i.p. administration", "setting": "[1]; 5 μg/rat i.c.v. versus 5 mg/kg i.p.", "value": "comparable effect on inhibition of carrageenan-induced paw edema as a higher dose administered intraperitoneally"}, {"measurement": "inhibition of carrageenan-induced paw edema", "setting": "[1]; i.c.v., McN-A-343 5 μg/rat, MT-3 0.37 μg/rat", "value": "significantly inhibits"}]}
{"smiles": "C[N+](C)(C)CCOC(N)=O", "note": "[carbachol]", "values": [{"measurement": "effect on carrageenan-induced paw edema", "setting": "[2]", "value": "attenuation of paw edema"}]}
{"smiles": "CNCCC(Oc1ccc(C(F)(F)F)cc1)c1ccccc1", "note": "(stereo not shown) [prozak, fluoxetine hydrochloride]", "values": [{"measurement": "effect in reducing LPS-induced serum TNF levels", "setting": "LPS-induced serum TNF", "value": "Neither nicotine nor prozak had any effect"}]}
{"smiles": "CN1CCCC1c1cccnc1", "note": "(stereo not shown) [nicotine]", "values": [{"measurement": "effect in reducing LPS-induced serum TNF levels", "setting": "LPS-induced serum TNF", "value": "Neither nicotine nor prozak had any effect"}]}
